Patent US7455861B2, “Angelicae sinensis extracts useful for treatment of cancers” (priority 2004, dated 2008)
Several values for one entry are separate records, joined by “and”; a condition that tells them apart may be missing. Equal entries are not always repeated. Where two headings read alike, the source gives them in different places.

Key:
[1] = tested on: HT-29; assay: Cytotoxicity (IC50) on HT-29; type: cell-based; conditions: Homo sapiens
Source text: Human umbilical vascular endothelial cells (HUVECs) were purchased from Cascade Biologics, Inc. (USA). HUVECs were maintained in Medium 200 (Cascade Biologics, Inc. USA) supplemented with 10% fetal bovine serum (FBS; Gibco BRL) and low serum growth supplement (LSGS; Cascade Biologics, Inc. USA). Human dermal fibroblasts (HDFs) were purchased from Cascade Biologics, Inc. (USA). HDFs were maintained in Medium 106 (Cascade Biologics, Inc. USA) supplemented with 10% FBS and low serum growth supplement (LSGS; Cascade Biologics, Inc. USA). The human colon adenocarcinoma cell lines HT-29 were purchased from the ATCC (Manassas, Va. USA). HT-29 were maintained in Dubecco's Modified Eagle Medium (DMEM; Gibco) supplemented with 10% FBS and 100 ng/ml penicillin and […] streptomycin (Life Technologies, Inc., Grand Island, N.Y., USA). […] The absorbance was measured at 450 nm, using a microplate reader with a reference wavelength at 600 nm or over. […]
The effects on cell viability after the treatments with different concentrations of the Angelicae sinensis extracts or the active components purified therefrom were evaluated by modified MTT assay in triplicate. […] Absorbance at 550 nm of the solutions was measured with MRX Microtiter Plate Luminometer (DYNEX, USA). The absorbance of untreated cells was considered as 100%. […]

[2] = tested on: MMP-2; assay: RT-PCR of MMP-2 in HUVEC; type: cell-based, human
[3] = tested on: GBM cells (DBTRG-05MG); assay: Apoptosis of GBM cells by TUNEL; type: cell-based, human
Procedure: Apoptotic cell death was analyzed using In Situ Cell Death Detection Kit, POD (Roche, Germany). Changes in DNA chromatin morphologic features were used for quantification. The procedures were performed in accordance with the manufacturer's instructions. […] In AS-C and BP-treated groups, the suspended cells were collected. In the control group, adherent and floating cells were collected. Then, the cells were fixed with 3.7% formaldehyde at room temperature for 15 min. on saline coated slides, washed once in 1×PBS, and incubated in cold permeabilization solution (0.1% Triton X-100+0.1% sodium citrate) after reducing activity of endogenous peroxidase with 3% H2O2. The cells were washed with 1×PBS again, and incubated with terminal deoxynucleiotidyl transferase (TdT)-mediated dUTP nicks labeling (TUNEL) reaction mixture for 60 minutes at 37° C. Then, the cells were washed with 1×PBS, counterstained with propidium iodide (PI) for cell counting. For quantification of apoptosis, the results were viewed under fluorescence microscopy (Nikon, Kawasaki, Japan).
The apoptotic cells with AS-C treatment were detected by fluorescence microscopy (400×), with In Situ TUNEL staining and propidium iodide cell counterstaining, and observed under light field. Likewise, BP induced apoptosis in GBM cells was assessed by TUNEL method and using propidium iodide as a counter stain. […]

[4] = tested on: HUVEC; assay: Tube formation of HUVEC; type: cell-based, human
[5] = tested on: AT12; assay: Cytotoxicity (IC50) on AT12; type: cell-based; conditions: Homo sapiens, read-out: Cytotoxicity (IC50) AT12
Procedure: The effects on cell viability after the treatments with different concentrations of the Angelicae sinensis extracts or the active components purified therefrom were evaluated by modified MTT assay in triplicate. Briefly, the cells (5×10^3) were incubated into 96-well plates containing 100 μl of a growth medium. The cells were permitted to adhere for 24 hours, then treated with 100 μl of the herbal extracts or the active components dissolved in the medium. The control contained DMSO of <0.02% (v/v). After 24, 48 and 72 h incubation, the drug-containing medium was replaced by 50 μl of fresh medium, and cells in each well were incubated in 50 μl of 400 μg/ml MTT for 6-8 h. The medium and MTT were removed later and 100 μl of DMSO was added to each well and to the control, to dissolve the soluble components. Absorbance at 550 nm of the solutions was measured with MRX Microtiter Plate Luminometer (DYNEX, USA). The absorbance of untreated cells was considered as 100%. To evaluate the effects of the extracts or the active components on cell growth rate of GBM cells, 5×10^3 exponentially growing cells were treated with different concentrations for 24, 48, or 72 h. The cytotoxicity of each test substance was determined as an IC50 value, which represents the drug concentration required to cause 50% inhibition. All experiments in this study were performed in triplicate.

CCCC=C1OC(=O)c2ccccc21 [BP, n-Butylidenephthalide]
IC50 ([1]; Table 2): 15 to 97 µg/mL | IC50 ([1]; Table 2, value in parentheses): 79.8 to 516 µM | Inhibition RT-PCR MMP-2 [2]: 159.4 µg/mL | Inhibition RT-PCR MMP-2 ([2]; value in parentheses): (847.9 μM) | apoptosis rates of GBM cells compared to untreated cells (TUNEL) ([3]; BP 5 to 800 μM, 48 hours): much higher | detached GBM cells having undergone apoptosis (TUNEL) ([3]; BP 5˜800 μg/ml as printed, 72 hours): almost all | Inhibition Tube Formation [4]: 531.3 µg/mL | Inhibition Tube Formation ([4]; value in parentheses): (2826 μM) | IC50 [5]: 10 µg/mL to 15 µg/mL and 53.2 µM to 79.8 µM
